Values after ≈ are worked out from the molar mass of the structure shown. Where two headings read alike, the source gives them in different places.
Assays:
[1] = Parent chemical in rat plasma, 90-day study; assay type: in vivo; conditions: for concentration at 91 day: Sprague-Dawley, rat, plasma, oral; for Percentage of the dose in the plasma: 90 days
Protocol: Subchronic (90-day) studies were performed in accordance with current U.S. EPA’s Toxic Substances Control Act Good Laboratory Practice (GLP) Standards, with the following two general exceptions to the GLP guidelines: Analysis of the dose formulations was conducted according to RTI-approved Standard Operating Procedures, and corn oil (the vehicle) was not characterized (certificate of analysis from the vendor is available in the appendices to the final reports). Male and female Sprague–Dawley rats (five dose levels plus a control, n = 10/sex/dose group, corn oil vehicle dose volume of 3 mL/kg; oral gavage) were used in these studies, and the rats were euthanized on SD 91. The dose levels for PFHI were 0, 12.5, 25, 50, 100, and 200 mg/kg-day. The dose levels for MHFPK were 0, 18.8, 37.5, 75, 150, and 300 mg/kg-day. The dose levels for PFNAC were 0, 0.1, 0.3, 1.0, 3.0, and 10 mg/kg-day for male rats and 0, 0.3, 1.0, 3.0, 10, and 30 mg/kg-day for female rats. For CTFPA, the dose levels were 0, 1.9, 3.8. 7.5, 15, and 30 mg/kg-day for male rats and 0, 6.3, 12.5, 25, 50, and 100 mg/kg-day for female rats. For each PFAS, three batches of dosing solution were prepared. The time between the batch preparation of the dosing solutions ranged between 29 and 39 days. Blood samples were collected from all the rats at termination for serum chemistry, hematology, coagulation, and the analysis of the parent PFAS chemical in the plasma. In vivo data collection and further detail on the endpoints examined postmortem are described below.
On SD 1 of the 14-day study (~2 h post dosing), 0.2 mL of blood was collected via tail vein puncture in tubes containing K3EDTA and stored on wet ice. Prior to the scheduled euthanasia, blood (~1 mL) was collected from the jugular vein in tubes containing K3EDTA and stored on wet ice on SD 15, for the 14-day study, and SD 91, for the 90-day study. All the tubes were centrifuged at an ~1500 relative centrifugal force within 1 h of collection for 15 min at 5 ± 3 °C. The plasma was stored at −75 ± 15 °C until the analysis. PFNAC and PFHI were analyzed using a headspace GC–mass spectrometry (MS) method, as summarized in Table S3, and CTFPA was analyzed using an ultra-HPLC-MS method, as summarized in Table S4. The MHFPK samples were not analyzed because a method suitable for plasma was not available. The details concerning the preparation of the samples, method blanks, and matrix and QC standards for the analysis are available in the appendices to the study reports.

male SD rats = assay: Single-dose tolerability study, oral gavage; assay type: in vivo, rat; conditions: single oral dose in corn oil, n = 3/dose
Protocol: Tolerability, 14-day dose-range-finding, and 90-day subchronic toxicity studies were conducted at Inotiv (Gaithersburg, MD, USA), monitored by the Research Triangle Institute (RTI) (Durham, NC, USA) and sponsored and funded by the EPA. Tolerability studies used four PFAS dose levels plus a control, with the high doses not to exceed 1000 mg/kg (subject to solubility in corn oil, dose volume of 5 or 10 mL/kg) and lower doses separated by threefold spacing. The dose levels for PFHI, MHFPK, and CTFPA were […]. The dose levels for PFNAC were 0, 25, 75, 225, and 667 mg/kg. Tolerability was studied using male rats (n = 3 rats/group) that received a single dose by oral gavage. The rats were euthanized at 48 hours post dosing. The data collected were bodyweight (BW) and BW changes (BWCs), feed consumption (FC) and water consumption (WC), cage-side observations, and physical exams; no necropsies were performed.

[2] = Solubility in dosing vehicles; assay type: physicochemical
Description: Based on solubility, corn oil (Welsh, Holme & Clark Inc., Newark, NJ, USA) was used as the vehicle for all four PFASs. Gas chromatography (GC) with flame ionization detection (FID) was used for the analysis of the PFNAC, PFHI, and MHFPK formulations, and a high-performance liquid chromatography (HPLC) method with ultraviolet spectroscopy was used for the CTFPA formulation. The details of the dosing solution analytical conditions are summarized in supplemental Tables S1 and S2. These analytical methods were developed specifically for these subchronic toxicity studies. […] Dosing solutions were prepared and replaced between at least every 29 days and no more than every 39 days.
PFNAC, PFHI, and MHFPK were soluble in corn oil up to 67, 200, and 100 mg/mL, respectively. As solubility in aqueous vehicles was 40 mg/mL or less for all three chemicals, corn oil was chosen as the vehicle. PFNAC was stable at the ambient temperature for 51 days at target concentrations of 0.2 and 10 mg/mL PFHI was stable in corn oil at ambient temperatures and target concentrations of 1 and 80 mg/mL for up to 70 days. MFHPK was stable in corn oil at room temperature for up to 44 days at target concentrations of 5 and 100 mg/mL. CTFPA was soluble in both deionized (DI) water and corn oil at 200 mg/mL when stored refrigerated overnight. […] Thus, corn oil was chosen as the vehicle for CTFPA. The stability of the CTFPA in the corn oil was evaluated for 8, 13, 15, 23, 35, and 42 days stored refrigerated in plastic bottles. CTFPA at 40 mg/mL was stable for up to 42 days. CTFPA at 0.6 mg/mL was stable for up to […] when refrigerated in plastic bottles but by 42 days had decreased to approximately 81%.

[3] = corn oil, oil or lipid, read-out: Solubility in corn oil

Structure (SMILES): FC(F)(F)C(F)(F)C(F)(F)C(F)(F)CCI [PFHI, 1H,1H,2H,2H-Perfluorohexyl iodide]
- concentration at 91 day ([1]; female, Day 91, 50 mg/kg-day): 12.2 ± 9.91 ng/mL
- concentration at 91 day ([1]; female, Day 91, 100 mg/kg-day): 48.3 ± 22.9 ng/mL
- concentration at 91 day ([1]; female, Day 91, 200 mg/kg-day): 76.7 ± 24.1 ng/mL
- concentration at 91 day ([1]; male, Day 91, 200 mg/kg-day): 52.4 ± 24.1 ng/mL
- Parent chemical in plasma ([1]; female, Day 91, 12.5 mg/kg-day): BLOD (below the limit of detection—1.7 ng/mL)
- Parent chemical in plasma ([1]; female, Day 91, 25 mg/kg-day): <BLOD/≤LOQ
- Parent chemical in plasma ([1]; male, Day 91, 12.5 mg/kg-day): BLOD (below the limit of detection—1.7 ng/mL)
- Parent chemical in plasma ([1]; male, Day 91, 25 mg/kg-day): <BLOD/≤LOQ
- Parent chemical in plasma ([1]; male, Day 91, 50 mg/kg-day): 14.0 ± 6.21 ng/mL
- Parent chemical in plasma ([1]; male, Day 91, 100 mg/kg-day): 43.8 ± 7.53 ng/mL
- Summary of observations (male SD rats): No mortality and no abnormal clinical observations, no effect on bodyweight; some bodyweight changes in high-dose group were considered as chemical-related
- solubility [2, 3]: ≤ 200 mg/mL

Structure (SMILES): C=CC(=O)OCC(F)(F)C(F)(F)C(F)(F)C(F)(F)C(F)(F)C(F)(F)C(F)(F)C(F)F [PFNAC, 1H,1H,9H-Perfluorononyl acrylate]
- Parent chemical in plasma ([1]; female, Day 91, highest dose 30 mg/kg-day): Parent chemical not detected at the highest dose
- Parent chemical in plasma ([1]; male, Day 91, highest dose 10 mg/kg-day): Parent chemical not detected at the highest dose
- Summary of observations (male SD rats): No mortality and no abnormal clinical observations, some lowering of bodyweight, bodyweight changes, and feed consumption in all the treated groups not reaching statistical significance
- solubility [2, 3]: ≤ 67 mg/mL

Structure (SMILES): CC(=O)C(F)(F)C(F)(F)C(F)(F)F [MHFPK, Methyl heptafluoropropyl ketone]
- Summary of observations (male SD rats): No mortality. Clinical signs of low activity and minimal ataxia on study day 1 at 1000 mg/kg, with recovery on the following two observation days
- solubility [2, 3]: ≤ 100 mg/mL

Structure (SMILES): O=C(O)C(F)(Cl)C(F)(F)F (stereo not shown) [CTFPA, 2-Chloro-2,3,3,3-tetrafluoropropanoic acid]
- concentration at 91 day ([1]; female, Day 91, 6.3 mg/kg-day): 12600 ng/mL
- concentration at 91 day ([1]; female, Day 91, 12.5 mg/kg-day): 24700 ng/mL
- concentration at 91 day ([1]; female, Day 91, 25 mg/kg-day): 51000 ng/mL
- concentration at 91 day ([1]; female, Day 91, 50 mg/kg-day): 71500 ng/mL
- concentration at 91 day ([1]; female, Day 91, 100 mg/kg-day): 116000 ng/mL
- concentration at 91 day ([1]; male, Day 91, 1.9 mg/kg-day): 12600 ng/mL
- concentration at 91 day ([1]; male, Day 91, 3.8 mg/kg-day): 22300 ng/mL
- concentration at 91 day ([1]; male, Day 91, 7.5 mg/kg-day): 43300 ng/mL
- concentration at 91 day ([1]; male, Day 91, 15 mg/kg-day): 62100 ng/mL
- concentration at 91 day ([1]; male, Day 91, 30 mg/kg-day): 84400 ng/mL
- Percentage of the dose in the plasma ([1]; female, 100 mg/kg-day): 4.48 ± 1.63%
- Percentage of the dose in the plasma ([1]; male, 30 mg/kg-day): 10.82 ± 2.76%
- Summary of observations (male SD rats): No mortality and no effect on absolute bodyweight gains or water consumption; clinical observations of low activity, decreased bodyweight and decreased feed consumption at high doses
- pH of the DI water solution ([2]; DI water solution): < 1
- solubility ([2]; corn oil, stored refrigerated overnight, read-out: Solubility in corn oil): 200 mg/mL (≈ 1110 mM)
- solubility ([2]; deionized water, stored refrigerated overnight, read-out: Solubility in deionized (DI) water): 200 mg/mL (≈ 1110 mM)

From article PMC12298827, “Subchronic Toxicities of Four Per- and Polyfluoroalkyl Substances (PFASs) by Oral Exposure in Sprague–Dawley Rats” (Toxics, 2025)
